In patent US7312248B2, “Control of parasites in animals by the use of novel trifluoromethanesulfonanilide oxime ether derivatives” (Schering-Plough Animal Health Corporation, priority 2004, dated 2007):

Tested on: Haemonchus contortus
Experiment: Haemonchus contortus larvacidal (larval development) assay
Type: in vivo
Settings: 144 h, read-out: Haemonchus contortus LD99
Method: a) Haemonchus Contortus Larvacidal Assay:
The effect of compounds on larval development was determined in the assay described by Gill et al. (1995, International Journal of Parasitology 25:463-470). Briefly, in this assay, nematode eggs were applied to the surface of an agar matrix containing the test compound and then allowed to develop through to the L3, infective stage (6 days). The wells for each dilution of every compound (from highest to lowest concentration) were inspected to determine the well number corresponding to the lowest concentration at which development was inhibited in 99% of the nematode larvae present (LD99). Because well numbers correspond to a two-fold serial dilution of each compound, a titre (dilution factor) is generated as 2^n−1, where n is the well number. By dividing the highest concentration tested by the titre an LD99 value can be obtained, representing the concentration required to inhibit development in 99% of the nematode larvae present. The compounds supplied as solid and viscous liquids were dissolved in DMSO. Twelve serial one-half dilutions in DMSO solution were prepared from the stock solution, each of which was then diluted ⅕ with water. Aliquots (10 μl) of each dilution were transferred to the bioassay plates to give a final concentration range of 0.024 to 50 μg/ml.

Compound | IC99 [µg/mL]
O=S(=O)(Nc1ccc(Cl)cc1/C(=N/OCc1ccccc1C(F)(F)F)c1ccccc1)C(F)(F)F [Compound 69] | 2.7
O=S(=O)(Nc1ccc(Cl)cc1/C(=N/OCc1cccc(Cl)c1Cl)c1ccccc1)C(F)(F)F [Compound 62] | 3
CC/C(=N\OCc1ccc(-c2ccccc2)cc1)c1cc(Cl)ccc1NS(=O)(=O)C(F)(F)F [Compound 94] | 7.5
O=S(=O)(Nc1ccc(Cl)cc1/C=N/OCc1cccc(Cl)c1Cl)C(F)(F)F [Compound 95] | 0.8
C/C(=N\OCc1ccc(Br)cc1)c1cc(Cl)ccc1NS(=O)(=O)C(F)(F)F [Compound 23] | 0.8
C/C(=N\OCc1cccc(Oc2ccccc2)c1)c1cc(Cl)ccc1NS(=O)(=O)C(F)(F)F [Compound 47] | 1.5
O=S(=O)(Nc1ccc(Cl)cc1/C(=N/OCc1cccc(C(F)(F)F)c1)c1ccccc1)C(F)(F)F [Compound 68] | 3.5
C/C(=N\OCc1cccc(Cl)c1)c1cc(Cl)ccc1NS(=O)(=O)C(F)(F)F [Compound 18] | 3.7
N#Cc1ccc(CO/N=C(\c2ccccc2)c2cc(Cl)ccc2NS(=O)(=O)C(F)(F)F)cc1 [Compound 80] | 3.5
C/C(=N\OCc1ccccc1F)c1cc(Cl)ccc1NS(=O)(=O)C(F)(F)F [Compound 39] | 7
CCC/C(=N\OCCc1ccccc1)c1cc(Cl)ccc1NS(=O)(=O)C(F)(F)F [Compound 110] | 5
O=S(=O)(Nc1ccc(Cl)cc1/C(=N/OCc1ccccc1)c1ccccc1)C(F)(F)F [Compound 66] | 13
C/C(=N\OCc1cccc(C(F)(F)F)c1)c1cc(Cl)ccc1NS(=O)(=O)C(F)(F)F [Compound 15] | 2.7
CCC/C(=N\OCc1ccc(Cl)cc1)c1cc(Cl)ccc1NS(=O)(=O)C(F)(F)F [Compound 112] | 3
CCC/C(=N\OCCOc1ccccc1)c1cc(Cl)ccc1NS(=O)(=O)C(F)(F)F [Compound 115] | 7.5
O=S(=O)(Nc1ccc(Cl)cc1/C=N/OCc1ccc(Cl)cc1)C(F)(F)F [Compound 81] | 1.7
CC/C(=N\OCc1ccccc1)c1cc(Cl)ccc1NS(=O)(=O)C(F)(F)F [Compound 107] | 10
CCC/C(=N\OCc1ccc(Br)cc1)c1cc(Cl)ccc1NS(=O)(=O)C(F)(F)F [Compound 102] | 1.9
O=S(=O)(Nc1ccc(Cl)cc1/C(=N/OCc1cccc(Cl)c1)c1ccccc1)C(F)(F)F [Compound 71] | 3
CC(C)/C(=N\OCc1ccc(Cl)cc1)c1cc(Cl)ccc1NS(=O)(=O)C(F)(F)F [Compound 117] | 3.5
C/C(=N\OCc1c(Cl)cccc1Cl)c1cc(Cl)ccc1NS(=O)(=O)C(F)(F)F [Compound 20] | 12
CC/C(=N\OCc1cccc(C(F)(F)F)c1)c1cc(Cl)ccc1NS(=O)(=O)C(F)(F)F [Compound 12] | 1.7
CCC/C(=N\OCc1cccc(Cl)c1Cl)c1cc(Cl)ccc1NS(=O)(=O)C(F)(F)F [Compound 99] | 2.5

Tested on: cat flea (Ctenocephalides felis)
Experiment: whole plant or invertebrate
Type: in vivo
Settings: 24 h; Laboratory 2 B data
Method: b) Ctenocephalides felis Adulticide Assay: C. felis Single Dose Screen
Mortality of fleas was the primary endpoint in the assay. Fleas were considered dead if they didn't move or were on their sides and unable to walk or right themselves. […] The concentration chosen (1.26 μg/cm^2) was higher than that known to kill 90% of cat fleas (LC90) using the reference compound, permethrin.
The test species was the cat flea (Ctenocephalides felis). The strain used was obtained from external suppliers as pupae and held in the laboratory under testing conditions until the adults had emerged. Fifteen (15) fleas were used in a minimum of four replicates against a single concentration level (approximately 60 fleas). The insects were selected to be in the adult life stage, aged between 3 and 7 days post emergence.
The compounds to be tested were supplied as solids and were prepared in acetone as described below prior to testing. Samples were stored in a refrigerator (5±1° C.) unless otherwise specified.
During the mortality testing, the temperature was maintained at 25±1° C. Humidity was maintained at 75±5%. The base (area=159 mm^2) of a 100 mL glass Erlenmeyer (conical) flask provided the treatment surface. Flasks were pretreated with Coatasil™ glass treatment to maximise bio-availability of test compounds by preventing them from binding to glass the surface. The base of the 100 mL Erlenmeyer flask was treated with 0.5 mL of test sample in acetone and gently swirled. This volume was sufficient to cover the base of the flask. Flasks were left to dry for 24 hours before flea exposure.
Adult cat fleas were placed into a sorting chamber, which allowed fleas to jump into the Erlenmeyer flasks. Fifteen (15) adult cat fleas were collected in each flask. The top of the flasks were then covered in Parafilm™ and small holes were made to allow gas exchange. A 0.5 mL volume of acetone as a solvent control was applied to the base of an Erlenmeyer flask and the testing proceeded in the same manner described above. Cat fleas in the treatment containers were held under testing conditions for 8, 24 and/or 48 hours. Mortality was recorded at 8, 24, 8 and 24, or 24 and 48 hours. Pooled 8, 24, 8 and 24, and 24 and 48 hour mortality data were converted to percentages and are summarized by Tables 14, 14A and 14B, below.

Compound | C. felis Mortality (%) 24 h
CC/C(=N\OCCC(C)C)c1cc(Cl)ccc1NS(=O)(=O)C(F)(F)F [Compound 248] | 96^B %

Same assay, conditions: 48 h; Laboratory 2 B data

Compound | C. felis Mortality (%) 48 h [%]
CC/C(=N\OCCC(C)C)c1cc(Cl)ccc1NS(=O)(=O)C(F)(F)F [Compound 248] | 100

Same assay, conditions: Ctenocephalides felis, 24 h, read-out: C. felis Mortality (%) 24 h, 24 h; Laboratory 1 A data

Compound | mortality at 1.26 µg/cm2, 1.26 µg/cm2 [%]
CC/C(=N\Oc1ccc(C(F)(F)F)cc1)c1cc(Cl)ccc1NS(=O)(=O)C(F)(F)F [Compound 145] | 9
CO/N=C(\C)c1cccc(C)c1NS(=O)(=O)C(F)(F)F [Compound 42] | 72
CCO/N=C(\C)c1cccc(C)c1NS(=O)(=O)C(F)(F)F [Compound 43] | 86
CCC(C)O/N=C(\C)c1cccc(C)c1NS(=O)(=O)C(F)(F)F (stereo not drawn) [Compound 58] | 25

Same assay, conditions: Ctenocephalides felis, 24 h, read-out: Ctenocephalides felis Mortality (%) 24 h

Compound | mortality at 1.26 µg/cm2 [%]
CCOCN(c1ccc(Cl)cc1/C(CC)=N/OCC1CCCCC1)S(=O)(=O)C(F)(F)F [Compound 301] | 1

Same assay, conditions: Ctenocephalides felis, 48 h, read-out: Ctenocephalides felis Mortality (%) 48 h

Compound | mortality at 1.26 µg/cm2 [%]
CCOCN(c1ccc(Cl)cc1/C(CC)=N/OCC1CCCCC1)S(=O)(=O)C(F)(F)F [Compound 301] | 19

Same assay, conditions: Ctenocephalides felis; 8 h; single concentration 1.26 μg/cm^2 on treated glass; adult fleas; Laboratory 2 B data; read-out: Ctenocephalides felis Mortality (%) 8 h

Compound | mortality at 1.26 µg/cm2 [%]
CCOC(=O)N(c1ccc(Cl)cc1/C(CC)=N/OCC1CCCCC1)S(=O)(=O)C(F)(F)F [Compound 313] | 0

Same assay, conditions: Ctenocephalides felis; 24 h; single concentration 1.26 μg/cm^2 on treated glass; adult fleas; Laboratory 2 B data; read-out: Ctenocephalides felis Mortality (%) 24 h

Compound | mortality at 1.26 µg/cm2 [%]
CCOC(=O)N(c1ccc(Cl)cc1/C(CC)=N/OCC1CCCCC1)S(=O)(=O)C(F)(F)F [Compound 313] | 59
